Laboratory results as given in US5192525A (Board of Regents, The University of Texas System, priority 1991, dated 1993).
pIC50, pKi: −log10 of the molar value. Where two headings read alike, the source gives them in different places.

Legend:
estrogen receptor [1] = target: T1, estrogen receptor (Homo sapiens, UniProt P03372); details: cited from earlier work; for estrogen receptor binding affinity, words: literature
T1 sequence (P03372 1-595): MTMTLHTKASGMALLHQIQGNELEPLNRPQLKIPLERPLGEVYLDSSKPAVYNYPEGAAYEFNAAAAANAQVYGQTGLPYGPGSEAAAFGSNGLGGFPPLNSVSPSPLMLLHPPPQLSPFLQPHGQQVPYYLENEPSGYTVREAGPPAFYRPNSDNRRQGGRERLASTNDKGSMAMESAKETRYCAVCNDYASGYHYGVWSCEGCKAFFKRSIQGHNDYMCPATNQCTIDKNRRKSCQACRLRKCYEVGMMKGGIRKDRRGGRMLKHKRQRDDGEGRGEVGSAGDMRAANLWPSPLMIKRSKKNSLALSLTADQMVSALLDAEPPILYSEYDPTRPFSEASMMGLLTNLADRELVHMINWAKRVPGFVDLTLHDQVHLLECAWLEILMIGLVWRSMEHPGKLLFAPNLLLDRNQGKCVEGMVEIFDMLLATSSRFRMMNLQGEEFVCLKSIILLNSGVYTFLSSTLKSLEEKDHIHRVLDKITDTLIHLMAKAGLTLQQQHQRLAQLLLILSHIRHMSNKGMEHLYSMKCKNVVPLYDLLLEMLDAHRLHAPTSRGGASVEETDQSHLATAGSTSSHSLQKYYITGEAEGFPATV

uterus = details: Allen et al. 1980; cited from earlier work
estrogen receptor [2] = target: T2, estrogen receptor (Sus scrofa, UniProt Q29040); assay: Estrogen receptor binding in pig uterus cytosol, displacement of [3H]estradiol; details: for RBA: relative binding affinity: Table 6, IC50 ratio between tamoxifen and competitor (tamoxifen given as 1); for fold estrogen receptor affinity versus native tamoxifen: relative to native tamoxifen; for pIC50 / pKi: pig uteri cytosol, [3H]estradiol 5 nM, 4 °C
T2 construct: uteri (90 gm) were obtained from immature domestic swine (15 kg); from tissue; host or cells: uterus cytosol (100,000 g supernatant, charcoal-treated) of immature domestic swine
T2 sequence (Q29040 1-595): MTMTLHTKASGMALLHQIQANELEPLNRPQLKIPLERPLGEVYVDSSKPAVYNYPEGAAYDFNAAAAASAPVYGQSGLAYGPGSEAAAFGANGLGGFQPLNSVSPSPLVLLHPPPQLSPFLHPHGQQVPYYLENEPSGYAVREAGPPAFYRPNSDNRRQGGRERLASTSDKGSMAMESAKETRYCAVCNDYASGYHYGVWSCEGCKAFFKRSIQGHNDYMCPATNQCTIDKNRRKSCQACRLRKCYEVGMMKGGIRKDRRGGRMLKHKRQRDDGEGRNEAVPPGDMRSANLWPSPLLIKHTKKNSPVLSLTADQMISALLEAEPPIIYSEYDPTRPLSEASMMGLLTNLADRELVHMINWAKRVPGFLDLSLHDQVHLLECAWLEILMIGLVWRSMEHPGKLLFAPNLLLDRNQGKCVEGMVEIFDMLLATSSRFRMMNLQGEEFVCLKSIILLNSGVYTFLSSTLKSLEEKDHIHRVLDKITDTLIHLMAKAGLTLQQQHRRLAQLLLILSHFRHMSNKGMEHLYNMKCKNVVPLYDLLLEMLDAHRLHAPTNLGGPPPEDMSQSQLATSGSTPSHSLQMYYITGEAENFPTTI
Experimental: done at 4° C. […] The protein
three experiments. In each experiment, triplicate samples were tested.
^2 IC50 : Concentration required to decrease the amount of bound
^3 RBA: Relative binding affinity is the IC50 ratio between

MCF7 cell line = assay: Inhibition of MCF7 human breast tumor cell growth (MTT, 72 h); type: cell-based; details: for relative potencies, MCF7 inhibition: TX=100; for RP (relative potency): IC50 ratio between tamoxifen and competitor, tamoxifen 100; for pIC50: Homo sapiens
Experimental: The MCF7 cell line is a human tumor cell line. This cell line was cultured in MEM (Eagles) media in a 5% CO^2 atmosphere with 10% fetal calf serum that had been washed twice with dextran coated charcoal to reduce endogenous estrogen levels. The media was supplemented with 1 mM sodium pyruvate and 100 μm non-essential amino acids. The cell line was screened routinely for myoplasma contamination using the GenProbe kit (Fisher). Cells were trypsinized and plated at a density of 5,000 cells/well in 96 well microtiter plates and allowed to attach and recover for 24 hours.
The media was removed by aspiration and replaced with filter sterilized drug (concentration from 10^-4 M to 10^-5 M) in media. The cells were incubated for 72 hours and then stained using the mTT tetrazolium dye assay of Mosmann^36 except that after the media was removed, the blue formazan product was solubilized in 50 μl/well DMSO.

[3] = In vivo tissue uptake of 131I-IMTX (trans) in rat; details: for liver uptake / uterus uptake: n=5
[4] = Biodistribution of N,N-diethyl-[18F]fluoromethyltamoxifen in rats; type: in vivo, rat (female Sprague-Dawley)
Experimental: Four groups of rats (150-200 gm, N=4/group) were anesthetized with ketamine (10-15 mg/rat). […]. Tissue uptake of ^18 F-tracer was determined at 2 and 4 hours (h). To ascertain whether the ^18 F-tracer uptake was mediated by a receptor-process, one group of rats was given ^18 F-tracer without priming with estradiol; and another group of rats was given unlabeled estradiol (30 μg/rat) together with ^18 F-tracer. […]
*Without prime with estradiol (control); rats weighted about 175 gm.

[5] = Table 7, MCF7, 72 h, average of three experiments, read-out: IC50 Dose
[6] = 2h (BLOCK), coinjected estradiol 30 μg

## CC/C(=C(/c1ccccc1)c1ccc(OCCN2CC2)cc1)c1ccccc1 [cis isomer of tamoxifen azizidine, tamoxifen azizidine]
Estrogen receptor [1]; Salituro et al., 50-fold less affinity than the trans isomer
  affinity loss of cis versus trans isomer: 50 fold

## CC/C(=C(\c1ccc(C)cc1)c1ccc(OCCN(C)C)cc1)c1ccccc1 [Compound 4-methyl]
Estrogen receptor [1]
  estrogen receptor binding affinity, words: approximately equal activity for estrogen receptor binding affinity compared to tamoxifen in vitro
uterus
  anti-estrogenic activity, uterine weight tests: lower anti-estrogenic activity than tamoxifen

## CCN(CC)CCOc1ccc(/C(=C(\CCCI)c2ccccc2)c2ccccc2)cc1 [X (cis), N,N-diethyl-iodomethyltamoxifen]
Estrogen receptor [2]
  RBA: relative binding affinity: 10
  fold estrogen receptor affinity versus native tamoxifen: 10 fold
MCF7 cell line
  MCF7 tumor cell inhibition, result in words: effective for inhibiting a breast tumor cell line
MCF7 cell line; listed as cis N,N-diethyl-iodomethyl
  MCF7 tumor cell inhibition, result in words: more potent than the trans isomers

## CC/C(=C(\c1ccc(Cl)cc1)c1ccc(OCCN(C)C)cc1)c1ccccc1 [Compound 4-chloro]
Estrogen receptor [1]
  estrogen receptor binding affinity, words: approximately equal activity for estrogen receptor binding affinity compared to tamoxifen in vitro
uterus
  anti-estrogenic activity, uterine weight tests: lower anti-estrogenic activity than tamoxifen

## CCN(CC)CCOc1ccc(/C(=C(/CCC[131I])c2ccccc2)c2ccccc2)cc1 [^131 I-IMTX (trans), N,N-diethyl [^131 I]iodomethyltamoxifen]
[3]; 3h
  Uterus/blood ratio: 1.6
  uterus/muscle ratio: 11.0
  liver uptake: 5.3±0.84 % injected dose per organ
  uterus uptake: 0.5±0.04 % injected dose per organ
[3]; 6h
  Uterus/blood ratio: 1.5
  uterus/muscle ratio: 7.6
  liver uptake: 3.0±0.02 % injected dose per organ
  uterus uptake: 0.14±0.16 % injected dose per organ
[3]; 24h
  Uterus/blood ratio: 1.2
  uterus/muscle ratio: 3.6
  liver uptake: 1.7±0.21 % injected dose per organ
  uterus uptake: 0.01±0.001 % injected dose per organ

## CCN(CC)CCOc1ccc(/C(=C(/CCCBr)c2ccccc2)c2ccccc2)cc1 [Compound XI (trans)]
Estrogen receptor [2]
  RBA: relative binding affinity: 150
  fold estrogen receptor affinity versus native tamoxifen: 50 fold
MCF7 cell line
  relative potencies, MCF7 inhibition: 298
MCF7 cell line; Table 7
  RP (relative potency): 298

## CN(C)CCOc1ccc(/C(=C(\CCF)c2ccccc2)c2ccccc2)cc1 [Compound VII (cis), Fluorotamoxifen]
MCF7 cell line; [5]
  pIC50: 5.35

## CCN(CC)CCOc1ccc(/C(=C(/CCCI)c2ccccc2)c2ccccc2)cc1 [X (trans)]
Estrogen receptor [2]
  fold estrogen receptor affinity versus native tamoxifen: 15 fold
MCF7 cell line
  MCF7 tumor cell inhibition, result in words: effective for inhibiting a breast tumor cell line

## CCN(CC)CCOc1ccc(/C(=C(\CCCO)c2ccccc2)c2ccccc2)cc1 [Compound III (cis), N,N-diethyl-hydroxymethyltamoxifen]
MCF7 cell line
  relative potencies, MCF7 inhibition: 66
MCF7 cell line; Table 7
  RP (relative potency): 66

## CCN(CC)CCOc1ccc(/C(=C(\CCCCl)c2ccccc2)c2ccccc2)cc1 [Compound XII (cis), 1[4-(2-Diethylaminoethoxy)phenyl]-1,2-diphenyl-5-chloro-1-pentene (N,N-Diethylchloromethyltamoxifen)]
MCF7 cell line; [5]
  pIC50: 5.36

## CCN(CC)CCOc1ccc(/C(=C(\CCF)c2ccccc2)c2ccccc2)cc1 (single isomer, unassigned) [IV (cis), N,N-diethyl-fluorotamoxifen]
Estrogen receptor [2]; Table 5
  pIC50: 4.52
  pKi: 4.82
Estrogen receptor [2]; Table 5, tamoxifen is 100 as the standard
  RBA: 100
MCF7 cell line
  MCF7 tumor cell inhibition, result in words: effective for inhibiting a breast tumor cell line
MCF7 cell line; [5]
  pIC50: 5.39
MCF7 cell line; listed as cis N,N-diethyl-fluoro
  MCF7 tumor cell inhibition, result in words: more potent than the trans isomers

## CCN(CC)CCOc1ccc(/C(=C(\CCCF)c2ccccc2)c2ccccc2)cc1 [Compound VI (cis), N,N-diethyl-fluoromethyltamoxifen]
MCF7 cell line
  MCF7 tumor cell inhibition, result in words: effective for inhibiting a breast tumor cell line
MCF7 cell line; listed as cis N,N-diethyl-fluoromethyl
  MCF7 tumor cell inhibition, result in words: more potent than the trans isomers

## CCN(CC)CCOc1ccc(C(=C(CCC[18F])c2ccccc2)c2ccccc2)cc1 [N,N-DIETHYL-[^18 F]FLUOROMETHYLTAMOXIFEN, N,N-Diethyl-[^18 F]Fluoromethyltamoxifen]
[4]; [6]
  MUSCLE uptake: 0.145 ± 0.0446 % OF INJECTED DOSE/GRAM
  liver uptake: 4.451 ± 1.1559 % OF INJECTED DOSE/GRAM
[4]; 2h*, without prime with estradiol
  BONE uptake: 0.644 ± 0.0656 % OF INJECTED DOSE/GRAM
[4]; 4h, estradiol primed
  KIDNEY uptake: 0.796 ± 0.0300 % OF INJECTED DOSE/GRAM
[4]; estradiol-primed rats, coinjection of estradiol
  uterus uptake, result in words: increased uptake was blocked by coinjection of estradiol

## CCN(CC)CCOc1ccc(/C(=C(/CCF)c2ccccc2)c2ccccc2)cc1 (single isomer, unassigned) [Compound IV (trans), N,N-diethyl-fluorotamoxifen]
Estrogen receptor [2]
  RBA: 250
  estrogen receptor binding, result in words: higher binding affinity than the cis isomer
  fold estrogen receptor affinity versus native tamoxifen: two and a half times that of tamoxifen
Estrogen receptor [2]; Table 5
  pIC50: 4.92
  pKi: 5.22
MCF7 cell line; [5]
  pIC50: 4.87

## CCN(CC)CCOc1ccc(/C(=C(/CCCF)c2ccccc2)c2ccccc2)cc1 [Compound VI (trans)]
MCF7 cell line
  MCF7 tumor cell inhibition, result in words: effective for inhibiting a breast tumor cell line
MCF7 cell line; MCF7, read-out: IC50, MCF7 cell inhibition
  pIC50: 5.74

## CCN(CC)CCOc1ccc(/C(=C(\CCCBr)c2ccccc2)c2ccccc2)cc1 [Compound XI (cis)]
Estrogen receptor [2]
  RBA: relative binding affinity: 37.5
  fold estrogen receptor affinity versus native tamoxifen: 38 fold
MCF7 cell line
  relative potencies, MCF7 inhibition: 2355
MCF7 cell line; Table 7
  RP (relative potency): 2355

## CCN(CC)CCOc1ccc(/C(=C(/CCCO)c2ccccc2)c2ccccc2)cc1 [III (trans), N,N-diethyl-hydroxymethyltamoxifen]
Estrogen receptor [2]
  RBA: relative binding affinity: 4
MCF7 cell line
  relative potencies, MCF7 inhibition: 50
MCF7 cell line; Table 7
  RP (relative potency): 50

## CN(C)CCOc1ccc(/C(=C(/CCF)c2ccccc2)c2ccccc2)cc1 [VII (trans), Trans-Fluorotamoxifen]
MCF7 cell line; [5]
  pIC50: 4.93
